Laboratory results as given in patent publication US11547300B2, “Methods of treating and imaging tumor micrometastases using photoactive immunoconjugates” (priority 2014, dated 2023).

Key:
[1] = system: OVCAR5 cells; conditions: cited from earlier work
[2] = system: EOC (NIH:OVCAR5) tumors; conditions: mouse, in vivo
Protocol: Micrometastatic mouse model. An orthotopic xenograft mouse model of human ovarian carcinomatosis was established in our laboratory with gynecologic oncologists (30). Athymic Swiss female Nu/Nu mice (20-25 grams and 6-8 weeks old; Cox Breeding Laboratories) were injected intraperitoneally (i.p.) with 16×10^6 NIH:OVCAR5 (EOC) cells in 2 mL phosphate-buffered saline. All experiments were conducted according to Massachusetts General Hospital Institutional Animal Care and Use Committee (IACUC) guidelines.

Row | Compound | resistance relative to a platinum sensitive cell line [1] [fold] | tumor-to-bowel ratio [2] | tumor-to-bowel ratio from fitting the pharmacokinetic data to a model [2]
1 | N.N.[Cl][Pt][Cl] [cisplatin] | 7 | – | –
2 | verteporfin | – | 2.7 | 2.8
